The record followed here is patent publication US20030139467A1, “Diuretics containing y-tocotrienol” (priority 2000, published 2003).

Data set [1] in a line: Amount of γ-CEHC excreted in urine after oral γ-tocotrienol or γ-tocopherol in vitamin E-deficient rats. The class given is in vivo, Sprague-Dawley strain male rats. The settings on record: oral 10 mg/0.5 ml in stripped corn oil, total over 48 hours, versus γ-tocopherol in the same amount, FIG. 2. The method, then: (§1) Seven-week-old Sprague-Dawley strain male rats, purchased from Nippon Clare Co., Ltd., were preliminarily bred with solid feed CE-2 (Nippon Clare Co., Ltd.) for 1 week and then bred with vitamin E-deficient feed for 4 weeks. The rats were placed in a stainless steel cage/rat, and the breeding room was maintained at a temperature of 22±1° C. in 50 % humidity. The animals were allowed feed and water ad libitum.
(§2) The feed was prepared by adding 10% corn oil (stripped corn oil) from which vitamin E had been removed by molecular distillation, to vitamin E-deficient powdery feed.
(§3) The bred vitamin E-deficient-rats were divided into 2 groups and fasted for 17 hours, and each rat in one group was orally given 10 mg/0.5 ml γ-tocotrienol dissolved in stripped corn oil, while as the control, each rat in the other group was orally given 10 mg/0.5 ml γ-tocopherol in analogous manner. After the administration, the rats in a urine collection group were placed in a metabolic cage/rat, and their urine was collected at 6-hours intervals for 48 hours during which a collection vessel was cooled on dry ice. The rats in a bile collection group were anesthetized with Nembutal in 2 hours after the administration in consideration of absorption time, and the abdomens of the rats were opened with their back fixed under anesthesia and a canula was inserted into the bile duct. […]

The nature of data set [2]: Amount of γ-CEHC excreted in bile after oral γ-tocotrienol or γ-tocopherol in vitamin E-deficient rats. The settings on record: oral 10 mg/0.5 ml in stripped corn oil, bile collected for 24 hours, versus γ-tocopherol, FIG. 3. The class given is in vivo, Sprague-Dawley strain male rats. As for the experimental part:
as §1, §2, §3

Data set [3] in a line: Effect of γ-tocotrienol on urine volume and on excretion of sodium and potassium into urine. The conditions noted are these: for volume of urine, corrected with creatinine: high-salt feed groups, FIG. 4. The class given is in vivo, SD strain male rats. As for the experimental part: Seven-week-old SD strain male rats (n=20) were preliminarily bred with solid feed and divided into 2 groups. One group was given vitamin E-deficient feed (AIN-76) and used as a control group. The other group was given high-salt feed prepared by adding 5% common salt to 1 kg vitamin E-deficient feed and used as a group given high-salt (high-Na) feed. Each animal in both the groups was given 20 g feed/day for 1 week and 25 g feed/day during a period of from the second to fourth weeks. 150 ml of purified water was given as drinking water, and the remainder of the water was measured. After 4 weeks, each group was further divided into 2 groups, and each rat in one group was given 10 mg γ-tocotrienol (control +γ-tocotrienol, High-Na+γ-tocotrienol) dissolved in stripped corn oil while the other group i.e. the control was given stripped corn oil (control, High-Na) for 3 consecutive days respectively, and after administration, their urine, while being frozen on dry ice, was collected at 6-hours intervals for 24 hours. The amounts of sodium and potassium in the urine were determined by the atomic absorption method and the amount of γ-CEHC by the ECD-HPLC method.

On to `CC(C)=CCC/C(C)=C/CC/C(C)=C/CCC1(C)CCc2cc(O)c(C)c(C)c2O1` (stereo not drawn) [γ-tocotrienol, 2,7,8-trimethyl-2-(4,8,12-trimethyltrideca-3,7,11-trienyl)chroman-6-ol], for which the “amount of γ-CEHC excreted in urine for a period of up to 48 hours” value in data set [1] is listed as “significantly higher than in the group given γ-tocopherol”. Also, the “γ-CEHC excreted into the bile” value in data set [2] is recorded as “larger in the group given γ-tocotrienol than in the group given γ-tocopherol”. Moreover, the “amount of potassium excreted in urine” value in data set [3] (4 groups (control and high-salt feed, with or without 10 mg γ-tocotrienol), atomic absorption method, FIG. 6) was “the influence of γ-tocotrienol administration was not observed”. Besides, the “volume of urine, corrected with creatinine” value in data set [3] (10 mg γ-tocotrienol for 3 consecutive days versus stripped corn oil, over 24 hours) is reported as “tended to be larger in the group given γ-tocotrienol”; in data set [3] (10 mg γ-tocotrienol versus stripped corn oil, 6 to 12 hours after the administration), “significantly increased for 6 to 12 hours after the administration”. For the same molecule, in data set [3] (high-salt group, 10 mg γ-tocotrienol versus stripped corn oil, atomic absorption method, FIG. 5), the “amount of sodium excreted in urine” value was “significantly larger amount of excreted sodium for a period of up to 12 hours after the administration”.
